pIC50: −log10 of the molar value.
Experiments:
[1] = target: Histone deacetylase; test: Inhibition of HDAC in human HeLa nuclear extract using Boc-Lys(Ac)-AMC or Boc-Lys(Tfa)-AMC as substrate preincubated for 5 mins followed by substrate addition and measured after 30 mins by fluorescence assay; format: subcellular, Nucleus
[2] = target: Histone deacetylase 1 (Homo sapiens, UniProt Q13547); test: Inhibition of HDAC1 (unknown origin) using Boc-Lys(Ac)-AMC or Boc-Lys(Tfa)-AMC as substrate preincubated for 5 mins followed by substrate addition and measured after 2 hrs by fluorescence assay
Chain of Histone deacetylase 1 (Q13547 whole entry): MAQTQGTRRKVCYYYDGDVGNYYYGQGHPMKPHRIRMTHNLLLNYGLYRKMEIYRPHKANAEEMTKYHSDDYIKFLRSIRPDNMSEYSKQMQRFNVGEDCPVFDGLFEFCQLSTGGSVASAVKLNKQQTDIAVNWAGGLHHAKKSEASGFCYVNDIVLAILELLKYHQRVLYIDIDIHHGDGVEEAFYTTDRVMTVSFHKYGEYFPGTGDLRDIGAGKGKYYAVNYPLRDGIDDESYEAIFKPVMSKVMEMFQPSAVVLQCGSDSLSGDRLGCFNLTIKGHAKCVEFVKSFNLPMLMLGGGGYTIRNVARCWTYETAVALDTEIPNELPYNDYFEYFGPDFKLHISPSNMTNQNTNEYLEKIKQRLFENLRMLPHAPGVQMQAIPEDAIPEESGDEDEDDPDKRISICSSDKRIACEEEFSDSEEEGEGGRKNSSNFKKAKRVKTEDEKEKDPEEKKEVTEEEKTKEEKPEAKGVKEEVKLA

[3] = target: Histone deacetylase 2 (Homo sapiens, UniProt Q92769); test: Inhibition of HDAC2 (unknown origin) using Boc-Lys(Ac)-AMC or Boc-Lys(Tfa)-AMC as substrate preincubated for 5 mins followed by substrate addition and measured after 1 hr by fluorescence assay
Chain of Histone deacetylase 2 (Q92769 whole entry): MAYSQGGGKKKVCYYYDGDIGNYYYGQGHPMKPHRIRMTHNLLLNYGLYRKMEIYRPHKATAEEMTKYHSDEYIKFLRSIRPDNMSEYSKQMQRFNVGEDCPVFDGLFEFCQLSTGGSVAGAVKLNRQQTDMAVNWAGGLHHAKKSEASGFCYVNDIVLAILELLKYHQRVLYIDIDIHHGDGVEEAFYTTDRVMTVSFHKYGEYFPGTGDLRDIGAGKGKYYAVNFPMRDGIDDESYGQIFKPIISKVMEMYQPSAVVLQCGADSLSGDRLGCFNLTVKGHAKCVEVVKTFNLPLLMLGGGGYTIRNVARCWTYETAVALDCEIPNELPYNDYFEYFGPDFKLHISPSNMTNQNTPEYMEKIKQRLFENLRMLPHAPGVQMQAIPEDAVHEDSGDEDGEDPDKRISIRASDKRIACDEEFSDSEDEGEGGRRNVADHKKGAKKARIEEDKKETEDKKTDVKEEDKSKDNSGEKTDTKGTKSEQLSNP

[4] = target: T1, Protein deacetylase HDAC6 (Homo sapiens, UniProt Q9UBN7); test: Inhibition of HDAC6 (unknown origin) using Boc-Lys(Ac)-AMC or Boc-Lys(Tfa)-AMC as substrate preincubated for 5 mins followed by substrate addition and measured after 2 hrs by fluorescence assay
T1 sequence (Q9UBN7 whole entry): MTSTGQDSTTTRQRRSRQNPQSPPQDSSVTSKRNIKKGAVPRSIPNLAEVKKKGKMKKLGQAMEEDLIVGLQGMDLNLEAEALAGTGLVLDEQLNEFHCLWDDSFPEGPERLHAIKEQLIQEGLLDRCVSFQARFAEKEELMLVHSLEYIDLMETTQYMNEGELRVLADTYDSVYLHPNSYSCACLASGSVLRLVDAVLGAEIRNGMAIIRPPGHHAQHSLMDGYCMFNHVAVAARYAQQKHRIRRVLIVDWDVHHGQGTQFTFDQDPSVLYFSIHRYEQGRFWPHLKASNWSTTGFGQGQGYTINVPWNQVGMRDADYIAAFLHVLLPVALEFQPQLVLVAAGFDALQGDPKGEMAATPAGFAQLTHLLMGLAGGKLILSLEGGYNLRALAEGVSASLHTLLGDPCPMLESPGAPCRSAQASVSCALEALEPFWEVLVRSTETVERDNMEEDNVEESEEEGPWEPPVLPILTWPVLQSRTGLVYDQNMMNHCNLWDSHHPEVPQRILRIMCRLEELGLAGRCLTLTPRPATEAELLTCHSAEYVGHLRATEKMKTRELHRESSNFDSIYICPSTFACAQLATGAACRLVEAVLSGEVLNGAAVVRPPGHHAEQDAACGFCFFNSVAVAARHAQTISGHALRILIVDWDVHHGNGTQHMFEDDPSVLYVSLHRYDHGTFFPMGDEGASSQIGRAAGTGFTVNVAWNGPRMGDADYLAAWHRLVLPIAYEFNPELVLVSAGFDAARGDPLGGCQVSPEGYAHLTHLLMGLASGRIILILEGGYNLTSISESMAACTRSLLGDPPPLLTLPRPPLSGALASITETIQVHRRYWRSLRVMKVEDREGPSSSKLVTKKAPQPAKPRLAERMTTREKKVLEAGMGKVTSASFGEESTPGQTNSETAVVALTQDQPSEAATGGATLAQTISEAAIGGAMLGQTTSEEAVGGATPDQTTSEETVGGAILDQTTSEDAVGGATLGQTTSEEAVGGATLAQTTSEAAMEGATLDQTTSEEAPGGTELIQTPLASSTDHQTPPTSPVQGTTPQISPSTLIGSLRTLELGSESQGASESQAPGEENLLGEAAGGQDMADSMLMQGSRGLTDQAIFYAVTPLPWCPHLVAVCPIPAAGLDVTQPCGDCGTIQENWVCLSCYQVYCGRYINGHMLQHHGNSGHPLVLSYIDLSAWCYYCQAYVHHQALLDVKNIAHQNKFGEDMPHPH

[5] = target: T2, Histone deacetylase 8 (Homo sapiens, UniProt Q9BY41); test: Inhibition of HDAC8 (unknown origin) using Boc-Lys(Ac)-AMC or Boc-Lys(Tfa)-AMC as substrate preincubated for 5 mins followed by substrate addition and measured after 1 hr by fluorescence assay
T2 sequence (Q9BY41 whole entry): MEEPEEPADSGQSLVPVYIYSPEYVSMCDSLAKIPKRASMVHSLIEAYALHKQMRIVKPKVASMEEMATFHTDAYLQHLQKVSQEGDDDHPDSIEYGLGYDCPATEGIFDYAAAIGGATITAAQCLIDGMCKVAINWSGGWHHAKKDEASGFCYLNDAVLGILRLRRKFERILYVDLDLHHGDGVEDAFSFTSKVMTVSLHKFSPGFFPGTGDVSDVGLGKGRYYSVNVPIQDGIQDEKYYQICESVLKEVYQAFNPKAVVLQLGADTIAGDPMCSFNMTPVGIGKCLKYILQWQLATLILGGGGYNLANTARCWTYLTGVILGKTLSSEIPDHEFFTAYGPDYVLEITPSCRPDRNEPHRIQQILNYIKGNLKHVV

[6] = tested on: Jurkat; test: Antiproliferative activity against human Jurkat cells assessed as inhibition of cell growth incubated for 48 hrs by CCK-8 assay; format: functional, cell-based
[7] = tested on: SK-N-BE(2); test: cells; format: functional, cell-based; conditions: Homo sapiens, SKNBE2, 48 h
Description: Antiproliferative activity against human SK-N-BE(2) cells assessed as inhibition of cell growth incubated for 48 hrs by CCK-8 assay

[8] = cells; format: functional, cell-based; conditions: Homo sapiens, KM3, 48 h
Description: Antiproliferative activity against human KM3 cells assessed as inhibition of cell growth incubated for 48 hrs by CCK-8 assay

[9] = tested on: PC-3; test: cells; format: functional, cell-based; conditions: Homo sapiens, PC-3, 48 h
Description: Antiproliferative activity against human PC-3 cells assessed as inhibition of cell growth incubated for 48 hrs by CCK-8 assay

[10] = in vitro; conditions: human, HUVEC cells
Description: Cytotoxicity against HUVEC cells assessed as inhibition of cell growth incubated for 48 hrs by CCK-8 assay

[11] = Metabolic stability in liver microsomes (unknown origin) at 2 mg/ml incubated for 120 mins under shaking condition in presence of NADPH by HPLC method; format: ADME, Microsome; conditions: 2 h

**Q.** For O=C(NO)c1ccc(CNC(=O)c2ccc3cccc(OCc4ccc(F)cc4)c3n2)cc1, which IC50 [1] is on record?
**A.** 0.033 µM

**Q.** And the pIC50 [2]?
**A.** 7.15

**Q.** What about the pIC50 [3] of the same compound?
**A.** 7.74

**Q.** And the pIC50 [4]?
**A.** 7.42

**Q.** And the pIC50 [5]?
**A.** < 5.00

**Q.** What about the pIC50 [6] of the same compound?
**A.** 5.37

**Q.** What about the pIC50 [7] of the same compound?
**A.** 5.42

**Q.** And the pIC50 [8]?
**A.** 5.55

**Q.** What about the pIC50 [9] of the same compound?
**A.** 5.25

**Q.** What about the IC50 at 48 h [10] of the same compound?
**A.** > 50 µM

**Q.** With O=C(CCCCCCC(=O)Nc1ccccc1)NO [VORINOSTAT] as the compound, how does the pIC50 [6] read?
**A.** 5.44

**Q.** For CC(C)(C)c1ccc(COc2cccc3ccc(C(=O)NCCCCCC(=O)NO)nc23)cc1, which IC50 [1] is on record?
**A.** 0.187 µM

**Q.** Which results are given for COc1ccc(COc2cccc3ccc(C(=O)NCc4ccc(C(=O)NO)cc4)nc23)cc1?
**A.** IC50 [1]: 0.041 µM; pIC50 [2]: 6.89; pIC50 [3]: 7.14; pIC50 [4]: 7.21; pIC50 [5]: < 5.00; pIC50 [6]: 5.31; pIC50 [7]: 5.37; pIC50 [8]: 5.84; pIC50 [9]: 5.23; IC50 at 48 h [10]: > 50 µM

**Q.** Which IC50 [1] does the source give for O=C(CCCCCNC(=O)c1ccc2cccc(OCc3ccc(Br)cc3)c2n1)NO here?
**A.** 0.168 µM

**Q.** For O=C(NO)c1ccc(CNC(=O)c2ccc3cccc(OCc4ccccc4)c3n2)cc1, which IC50 [1] is on record?
**A.** 0.062 µM

**Q.** With COc1cccc2ccc(C(=O)NCc3ccc(C(=O)NO)cc3)nc12 as the compound, how does the IC50 [1] read?
**A.** 0.05 µM

**Q.** What about the pIC50 [2] of the same compound?
**A.** 7.01

**Q.** What about the pIC50 [3] of the same compound?
**A.** 7.59

**Q.** What about the pIC50 [4] of the same compound?
**A.** 6.78

**Q.** And the pIC50 [5]?
**A.** < 5.00

**Q.** And the pIC50 [6]?
**A.** 5.54

**Q.** What about the pIC50 [7] of the same compound?
**A.** 5.92

**Q.** And the pIC50 [8]?
**A.** 6.30

**Q.** What about the pIC50 [9] of the same compound?
**A.** 5.55

**Q.** And the Stability [11]?
**A.** Stable

**Q.** What about the IC50 at 48 h [10] of the same compound?
**A.** > 50 µM

**Q.** For COc1ccc(COc2cccc3ccc(C(=O)NCCCCCC(=O)NO)nc23)cc1, which IC50 [1] is on record?
**A.** 0.127 µM

**Q.** Which IC50 [1] does the source give for O=C(CCCCCNC(=O)c1ccc2cccc(OCc3ccccc3)c2n1)NO here?
**A.** 0.168 µM

**Q.** For Cc1ccc(COc2cccc3ccc(C(=O)NCc4ccc(C(=O)NO)cc4)nc23)cc1, which IC50 [1] is on record?
**A.** 0.046 µM

**Q.** What about the pIC50 [2] of the same compound?
**A.** 6.88

**Q.** What about the pIC50 [3] of the same compound?
**A.** 7.37

**Q.** And the pIC50 [4]?
**A.** 7.00

**Q.** And the pIC50 [5]?
**A.** < 5.00

**Q.** What about the pIC50 [6] of the same compound?
**A.** 5.35

**Q.** What about the pIC50 [7] of the same compound?
**A.** 5.45

**Q.** What about the pIC50 [8] of the same compound?
**A.** 5.78

**Q.** What about the pIC50 [9] of the same compound?
**A.** 5.39

**Q.** And the IC50 at 48 h [10]?
**A.** > 50 µM

**Q.** Which IC50 [1] does the source give for O=C(NO)c1ccc(CNC(=O)c2ccc3cccc(OCc4ccc(Br)cc4)c3n2)cc1 here?
**A.** 0.054 µM

Source: ChEMBL document CHEMBL5257099, “Design, synthesis and bioactivity evaluations of 8-substituted-quinoline-2-carboxamide derivatives as novel histone deacetylase (HDAC) inhibitors” (Bioorg Med Chem, 2023)
